In patent publication US12453725B2, “Treatment of inflammatory disease” (Celleron Therapeutics Limited, priority 2019, dated 2025):

Tests used:
physchem = details: 25 °C, aqueous buffer
HDAC Class 1l = test: HDAC Class II inhibition; assay type: biochemical; details: stated as no activity; read-out: activity against HDAC Class 1l
colon26 tumours [1] = test: RNAseq and qPCR of colon26 tumours; assay type: in vivo, Balb/c mice
Description: (§1) To assess gene expression in tumours that were growing in vivo, we evaluated the effect of CXD101 in the syngeneic colon26 colon carcinoma model in tumours grown subcutaneously in Balb/c mice, with CXD101 given orally for two 5-day consecutive periods and performed RNAseq on RNA purified from the tumours. Formalin-fixed paraffin-embedded samples were also prepared to assess by immunohistochemistry (IHC) the tumour micro-environment.
The effect was dose-dependent, as more tumour-inhibition occurred with a higher dose of CXD101 (50 mg/kg compared to 15 mg/kg). […] We performed RNA seq on polyA-enriched RNA prepared from the tumours. In a similar way to the analysis of colon26 in vitro, the RNAseq data was aligned to the reference M. musculus genome (mm10) with STAR aligner and analysed for differential expression. […] We then assessed whether the same genes identified in the in vitro treated colon26 cells were similarly regulated in vivo.

SW620 cells = test: qPCR of single genes, SW620 cells; assay type: cell-based, human
Description: Total RNA purified from DMSO- or CXD101 treated cells was transcribed into cDNA according to the manufacturer's instructions (iScript cDNA Synthesis Kit, Bio-Rad, USA). qPCR was conducted according to the manufacturer's protocol (SsoAdvanced Universal SYBR Green Supermix, Bio-Rad Laboratories, USA) on CFX Connect Real-Time System thermocycler (Bio-Rad Laboratories, USA).

colon26 tumours [2] = test: Syngeneic colon26 colon carcinoma model; assay type: in vivo
Description: as §1
Syngeneic colorectal tumour xenograft Colon 26 model was induced in female BALB/c mice and MC38 model in C57BL/6 mice by subcutaneous injection of cell suspension into the flank following the anaesthetization by inhalation of isoflurane. Upon solid tumour formation Colon 26 animals were divided into six experimental groups treated respectively with: vehicle control (control), CXD101, anti-PD-1 mAb (BioXCell, USA), anti-CTLA4 mAb (BioXCell, USA), combination of CXD101 with anti-PD-1 antibody and combination of CXD101 with anti-CTLA4 antibody. MC38 animals were divided into four groups, without CTLA-4-based treatment. During the course of experiment animals were monitored twice daily and weighed three times a week. Mice in bad overall condition and/or tumour volume exceeding 1000 mm3 were euthanized. Tumour volume was calculated by two-dimensional measurement according to the formula: Tumour volume=(a×b^2)×0.5 in which a—represents the largest and, b—the perpendicular tumour diameter. The study was terminated on 36th day (Colon 26) or 48th day (MC38). All Colon 26 animal handling has been executed by Charles River Laboratories (Germany) personnel with compliance to all local and international laws and regulations. Experiments involving MC38 tumour model have been executed by Crown Bioscience San Diego (USA). CXD101 Clinical Trial in Combination with Nivolumab (CTL-101-023)

[3] = tested on: SW620 human colon adenocarcinoma cells; test: MTT assay, SW620 cells; assay type: cell-based
Description: Three human colorectal adenocarcinoma cell lines: SW620 (ATCC® CCL-227™), HCT-15 (ATCC® CCL-225™), LoVo (ATCC® CCL-229™), and one mouse colon carcinoma cell line: CT26 (ATCC® CRL-2638™) were obtained from ATCC. Human cell lines were cultured in DMEM (Lonza Group, Switzerland), while CT26 in RPMI (Biowest, France). The media were supplemented with 10% FBS and 1% penicillin-streptomycin (Lonza Group, Switzerland). Cells were cultured under standard conditions.
In order to assess the cytotoxicity of CXD101, cells were seeded onto 96-well plates overnight and the next day were dosed with CXD101 and incubated for 72 h or 120 h. Next, 100 μl of Thiazolyl Blue Tetrazolium Bromide (MTT, Sigma-Aldrich, USA) was added into a well (final concentration […]) and incubated for 2 h at 37° C. After that medium was discarded and formazan crystals were dissolved in 100 μl DMSO (VWR International, USA) by shaking for 15 minutes. Absorbance was read by Omega FLUOstar plate reader (BMG Labtech Ltd, Germany) at the 584 nm wavelength. Data were analysed and IC50 doses calculated in GraphPad Prism (GraphPad Software, USA).

A20 tumours = test: Syngeneic A20 B cell lymphoma model; assay type: in vivo, mouse; details: CXD101 50 mg/kg
Excerpt: In order to rule out that the effects of the combined therapy were specific to the colon26 and MC38 colorectal cancer model, we widened the study to the syngeneic A20 B cell lymphoma model (FIG. 10). A20 tumours are reported to express high levels of PD-L1 and are responsive to immunomodulatory antibodies (32).

Cc1nn(C)cc1CN1CCC(c2ccc(C(=O)Nc3ccccc3N)cc2)CC1 [CXD101, N-(2-aminophenyl)-4-(1-[(1,3-dimethyl-1H-pyrazol-4-yl)methyl]piperidin-4-yl)benzamide]
solubility (physchem): ≥ 500 µg/mL
IC50 (HDAC Class 1l): ≥ 2500 nM
expression of Ccl20, Tnfsrf8 (colon26 tumours [1]; colon26 tumours, qPCR): no effects
expression of H2-DMb1, H2-Eb1, H2-Dmb1, H2-T3, Ereg, Timp3, Ctla4, H2-D1, Ccl9, 1133 (colon26 tumours [1]; colon26 tumours, qPCR): increased expression
expression of Rab3b (colon26 tumours [1]; colon26 tumours, qPCR): decreased
number of DEGs in tumours in vivo (colon26 tumours [1]; log 2 FC >1 and FDR <1%): 1141
expression of HLA-B, HLA-F, HLA-DPA1, HLA-DQB1, CTLA4, CDKN1A, TIMP3 (SW620 cells): increases expression
expression of PHGDH, BCL2L15 (SW620 cells): decreases
expression of REPIN1 (SW620 cells): no effect
growth of colon26 tumours (colon26 tumours [2]; mono-therapy vs combined treatment study): inhibitory effect
body weight (colon26 tumours [2]; mono-therapy, 15 and 50 mg/kg): minimal effect
tumour growth (colon26 tumours [2]; mono-therapy, oral, two 5-day periods, 15 and 50 mg/kg, dose-dependent): significant inhibition of tumour growth
proliferation of human colon cancer cells [3]: blocks proliferation
A20 tumour progression (A20 tumours): modest effect
